The values that follow come from ChEMBL document CHEMBL5053547, “Targeting of the FOXM1 Oncoprotein by E3 Ligase-Assisted Degradation” (J Med Chem, 2021).

Calls of active or inactive are those of the source. The calls are words filed in the database; no cut-off is given here.

Data set [1] deals with MDA-MB-231. Briefly: Antiproliferative activity against human MDA-MB-231 cells assessed as growth inhibition by MTT assay. Format: functional. Background: Formazan colour is commonly taken as a measure of viable cells.
Data set [2] deals with MDA-MB-231. The experiment in a line: Reduction in FOXM1 expression in mouse xenografted with human MDA-MB-231 cells at 10 mg/kg/day administered through tail vain for 12 consecutive days by Western blot analysis. Format: functional, organism-based. Conditions: route iv. A general note: Xenograft models place foreign cells or tissue in a host animal.
The test system of data set [3] is MDA-MB-231. The experiment in a line: Antitumor activity against human MDA-MB-231 cells xenografted in mouse assessed as tumor shrinkage at 10 mg/kg/day administered through tail vain for 12 consecutive days by H and E staining based histological analysis. Format: functional, organism-based. The following applies: route iv.
The target of another data set is T1, Forkhead box protein M1 (Homo sapiens, UniProt Q08050).
T1 sequence (Q08050 whole entry): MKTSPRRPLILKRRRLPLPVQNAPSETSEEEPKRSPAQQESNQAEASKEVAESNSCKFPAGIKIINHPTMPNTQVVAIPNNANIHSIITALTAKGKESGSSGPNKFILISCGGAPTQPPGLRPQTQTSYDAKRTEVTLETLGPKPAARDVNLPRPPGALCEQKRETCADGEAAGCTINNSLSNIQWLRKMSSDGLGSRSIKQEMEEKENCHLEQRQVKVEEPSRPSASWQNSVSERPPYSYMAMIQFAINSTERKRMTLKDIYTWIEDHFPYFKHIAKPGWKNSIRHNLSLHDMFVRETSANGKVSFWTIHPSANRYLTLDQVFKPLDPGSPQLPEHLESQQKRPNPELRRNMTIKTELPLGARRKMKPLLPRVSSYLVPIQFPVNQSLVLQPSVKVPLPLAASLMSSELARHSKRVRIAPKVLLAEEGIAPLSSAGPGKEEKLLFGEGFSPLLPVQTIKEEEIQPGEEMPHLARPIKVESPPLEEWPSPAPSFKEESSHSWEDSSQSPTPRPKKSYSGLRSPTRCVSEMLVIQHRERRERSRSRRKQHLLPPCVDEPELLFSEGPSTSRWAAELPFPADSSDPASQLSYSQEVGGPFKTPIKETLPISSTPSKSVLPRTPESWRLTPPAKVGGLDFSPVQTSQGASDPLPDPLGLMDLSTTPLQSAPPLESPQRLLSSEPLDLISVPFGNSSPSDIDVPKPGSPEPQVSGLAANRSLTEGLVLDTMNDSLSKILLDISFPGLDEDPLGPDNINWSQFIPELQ
The experiment in a line: Inhibition of recombinant FOXM1-DBD (unknown origin) binding to DNA measured after 30 mins by biochemical EMSA assay.

Data set [4] concerns MDA-MB-231. The experiment in a line: Induction of cell cycle arrest in human MDA-MB-231 cells assessed as accumulation at G0/G1 phase at 20 uM incubated for 16 hrs by flow cytometry assay (reference value: 65.49%). Format: functional. In general terms: Flow cytometry measures light scatter and fluorescence of single cells or particles in a stream.
The test system of data set [5] is MDA-MB-231. Briefly: Induction of cell cycle arrest in human MDA-MB-231 cells assessed as accumulation at S phase at 20 uM incubated for 16 hrs by flow cytometry assay (reference value: 22.19%). Format: functional.
Data set [6] has as its system MDA-MB-231. Briefly: Induction of cell cycle arrest in human MDA-MB-231 cells assessed as accumulation at G2/M phase at 20 uM incubated for 16 hrs by flow cytometry assay (reference value: 12.30%). Format: functional.
Data set [7] deals with MDA-MB-231. The experiment in a line: Antitumor activity against human MDA-MB-231 cells xenografted in mouse assessed as […] by measuring Ki67 labelling at 10 mg/kg/day administered through tail vain for 12 consecutive days by immunohistochemical analysis. Format: functional, organism-based. The following applies: route iv.
The test system of data set [8] is MDA-MB-231. The experiment in a line: Reduction in beta-catenin nuclear accumulation in human MDA-MB-231 cells at 20 uM incubated for 16 hrs by Western blot analysis. Type of data set: functional, cell-based.
Data set [9] relates to MDA-MB-231. The experiment in a line: In vivo antitumor activity against human MDA-MB-231 cells xenografted in mouse assessed as tumor growth inhibition at 10 mg/kg/day administered through tail vain for 12 consecutive days. Format: functional. The following applies: route iv, read-out: TGI.
In data set [10] the test system is MDA-MB-231. The experiment in a line: Downregulation of Cyclin B expression in human MDA-MB-231 cells at 20 uM incubated for 16 hrs by Western blot analysis. Format: functional, cell-based.
Data set [11] deals with MDA-MB-231. The experiment in a line: Downregulation of CDC25B expression in human MDA-MB-231 cells at 20 uM incubated for 16 hrs by Western blot analysis. Format: functional, cell-based.
Data set [12] has as its system MDA-MB-231. Briefly: Antineoplastic effect in human MDA-MB-231 cells xenografted in mouse assessed as reduction in tumor volume at 10 mg/kg/day administered through tail vain for 12 consecutive days. Format: functional, organism-based. The following applies: route iv.
The subject of data set [13] is MDA-MB-231. Briefly: Anti-invasive activity against human MDA-MB-231 cells assessed as increase in E-cadherin mRNA expression incubated for 16 hrs by qRT-PCR analysis. The following applies: dose 10-20 µM. Format: functional, cell-based.
Data set [14] deals with MDA-MB-231. Briefly: Anti-invasive activity against human MDA-MB-231 cells assessed as decrease in Vimentin gene expression incubated for 16 hrs by qRT-PCR analysis. The following applies: dose 10-20 µM. Format: functional, cell-based.
In the next data set the test system is MCF-10A. Briefly: Cytotoxicity against human MCF-10A cells assessed as cell viability measured upto 30 uM. Format: cell-based.
The test system of data set [15] is MDA-MB-231. The experiment in a line: Anti-invasive activity against human MDA-MB-231 cells assessed as decrease in Slug gene expression incubated for 16 hrs by qRT-PCR analysis. Format: functional, cell-based. The following applies: dose 10-20 µM.
The test system of data set [16] is MDA-MB-231. Briefly: Anti-invasive activity against human MDA-MB-231 cells assessed as decrease in Snail gene expression incubated for 16 hrs by qRT-PCR analysis. Format: functional, cell-based. The following applies: dose 10-20 µM.
Data set [17] deals with MDA-MB-231. Briefly: Anti-invasive activity against human MDA-MB-231 cells assessed as reduction invasion incubated by transwell assay. Type of data set: functional, cell-based. Conditions: dose 10-20 µM.
Data set [18] is described as follows: Stability in rat plasma assessed as half life by LC/MS analysis. Format: ADME, cell-free.
Data set [19] deals with MDA-MB-231. Briefly: Anti-invasive activity against human MDA-MB-231 cells assessed as decrease in MMP2 gene expression incubated for 16 hrs by qRT-PCR analysis. Type of data set: functional, cell-based. Conditions: dose 10-20 µM.
Another data set relates to Mus musculus. The experiment in a line: Toxicity in mouse xenografted with human MDA-MB-231 cells assessed as change in body weight at 10 mg/kg/day administered through tail vain for 12 consecutive days. Format: organism-based. Conditions: in vivo, iv.
The test system of a further data set is MCF7. The experiment in a line: Antiproliferative activity against human MCF7 cells assessed as cell viability measured at 10 uM. Format: functional, cell-based.
Data set [20] has as its system MDA-MB-231. The experiment in a line: Anti-invasive activity against human MDA-MB-231 cells assessed as reduction migration incubated by transwell assay. Format: functional, cell-based. The following applies: dose 10-20 µM.
A short description of data set [21]: Stability in human plasma assessed as half life by LC/MS analysis. Format: ADME, cell-free.
Data set [22] can be described thus: Stability in mouse plasma assessed as half life by LC/MS analysis. Type of data set: ADME, cell-free.

As for `Nc1c(C(=O)Nc2ccc(F)cc2)sc2nc(-c3ccc(OCC(=O)NCCCOCCOCCOCCCNc4cccc5c4C(=O)N(C4CCC(=O)NC4=O)C5=O)cc3)cc(C(F)(F)F)c12` (centres undefined), the concentration for 50% growth inhibition (GI50) (as a rule, the concentration giving 50% growth inhibition) in the data set on MDA-MB-231 [1] was greater than 50 µM.
The same measure, in the same setting: for `Nc1c(C(=O)Nc2ccc(F)cc2)sc2nc(-c3ccc(OCC(=O)NCCCCCCCCNc4cccc5c4C(=O)N(C4CCC(=O)NC4=O)C5=O)cc3)cc(C(F)(F)F)c12` (centres undefined) the value was greater than 50 µM.
Consider `Nc1c(C(=O)Nc2ccc(F)cc2)sc2nc(-c3cccs3)cc(C(F)(F)F)c12`, for which the outcome with MDA-MB-231 [2], in the data set with MDA-MB-231 [3] and with MDA-MB-231 [7] was Active. Besides, on Forkhead box protein M1, the IC50 (commonly the concentration that gives 50% inhibition) amounted to 28.4 µM. Moreover, the GI50 in the data set with MDA-MB-231 [1] came out at 25.6 µM. For the same compound, the Activity in the data set on MDA-MB-231 [4] came to 57.52%; in the data set on MDA-MB-231 [5], 16.17%; in the data set with MDA-MB-231 [6], 16.32%. Besides, the result with MDA-MB-231 [8] was inactive. In addition, the inhibition in vivo at 10 mg/kg/day in the data set with MDA-MB-231 [9] was determined as 47.8%.
On to `COc1ccc(-c2cc(C(F)(F)F)c3c(N)c(C(=O)Nc4ccc(F)cc4)sc3n2)cc1`, for which, in the data set on MDA-MB-231 [1], the GI50 worked out at 27.3 µM.
On the same count and under the same terms, in the case of `Nc1c(C(=O)Nc2ccc(F)cc2)sc2nc(-c3ccc(OCC(=O)NCCOCCOCCNc4cccc5c4C(=O)N(C4CCC(=O)NC4=O)C5=O)cc3)cc(C(F)(F)F)c12` (centres undefined) it was greater than 50 µM.
For the compound `CN1C(=O)CCC(N2C(=O)c3cccc(OCC(=O)NCCCOCCOCCOCCCNC(=O)COc4ccc(-c5cc(C(F)(F)F)c6c(N)c(C(=O)Nc7ccc(F)cc7)sc6n5)cc4)c3C2=O)C1=O` (centres undefined), the outcome with MDA-MB-231 [10], in the data set on MDA-MB-231 [8] and in the data set with MDA-MB-231 [11] was inactive. The results for the Activity in the data set with MDA-MB-231 [4], with MDA-MB-231 [5] and in the data set on MDA-MB-231 [6] were 57.44%, 24.35% and 18.2%, respectively.
For `Nc1c(C(=O)Nc2ccc(F)cc2)sc2nc(-c3ccc(OCC(=O)NCCOCCOCCNC(=O)COc4cccc5c4C(=O)N(C4CCC(=O)NC4=O)C5=O)cc3)cc(C(F)(F)F)c12` (centres undefined), the GI50 with MDA-MB-231 [1] was determined as 19.5 µM.
As for `Nc1c(C(=O)Nc2ccc(F)cc2)sc2nc(-c3ccc(OCC(=O)NCCCNC(=O)COc4cccc5c4C(=O)N(C4CCC(=O)NC4=O)C5=O)cc3)cc(C(F)(F)F)c12` (centres undefined), in the data set with MDA-MB-231 [1], the GI50 was found to be 17.4 µM.
Consider `Nc1c(C(=O)Nc2ccc(F)cc2)sc2nc(-c3ccc(OCC(=O)NCCCOCCOCCOCCCNC(=O)COc4cccc5c4C(=O)N(C4CCC(=O)NC4=O)C5=O)cc3)cc(C(F)(F)F)c12` (centres undefined), for which the result in the data set on MDA-MB-231 [10], in the data set on MDA-MB-231 [12], in the data set on MDA-MB-231 [2], in the data set on MDA-MB-231 [3], with MDA-MB-231 [7] and with MCF7 was Active. In addition, the result in the data set on MDA-MB-231 [8] and in the data set with MDA-MB-231 [11] was Active. Further, the Activity entry with MDA-MB-231 [13] is “Dose-dependent effect”; in the data set with MDA-MB-231 [14], “Dose-dependent effect”; in the data set with MCF-10A, “Non-Toxic”; in the data set on MDA-MB-231 [15], “Dose-dependent effect”; in the data set with MDA-MB-231 [16], “Dose-dependent effect”; in the data set on MDA-MB-231 [17] it was “Dose-dependent effect”. Also, the Activity in the data set with MDA-MB-231 [4] is 57.92%; with MDA-MB-231 [19] it was “Dose-dependent effect”; in the data set with Mus musculus, “Non-Toxic”; in the data set on MDA-MB-231 [5] it was 21.75%; with MDA-MB-231 [6], 20%; in the data set with MDA-MB-231 [20] it was “Dose-dependent effect”. Further, the GI50 in the data set with MDA-MB-231 [1] is 16.2 µM. For the same compound, the half-life (in general, the time in which the quantity being followed falls by half) in data set [18] was 0.588 h; in data set [21], 1.74 h; in data set [22], greater than 2 h. The inhibition in vivo at 10 mg/kg/day in the data set with MDA-MB-231 [9] is 78.2%.
`Nc1c(C(=O)Nc2ccc(F)cc2)sc2nc(-c3ccc(OCC(=O)NCCCCCCCCNC(=O)COc4cccc5c4C(=O)N(C4CCC(=O)NC4=O)C5=O)cc3)cc(C(F)(F)F)c12` (centres undefined): in the data set with MDA-MB-231 [1], the 50% growth inhibitory concentration (GI50) was determined as 38.6 µM.
Same read-out and setting: for `Nc1c(C(=O)Nc2ccc(F)cc2)sc2nc(-c3ccc(OCC(=O)NCCCNc4cccc5c4C(=O)N(C4CCC(=O)NC4=O)C5=O)cc3)cc(C(F)(F)F)c12` (centres undefined) the value was 45.4 µM.
